Results as given in patent US10806717B2, “Methods and compositions for improving cognitive function” (The Johns Hopkins University, priority 2013, dated 2020).

Assays:
MAM-treated rats [1] = details: cited from earlier work
[2] = system: Memory-impaired aged rats; assay: Radial arm maze task with 2-hr delay, acute brivaracetam or seletracetam; format: in vivo, rat; details: acute i.p. 0.0625-4 mg/kg, 30-40 min before test; repeated measures ANOVA: brivaracetam p=0.039, seletracetam p=0.009
[3] = system: Memory-impaired aged rats; assay: Water maze probe test after chronic brivaracetam; format: in vivo, rat; details: brivaracetam 2 mg/kg/day by osmotic mini-pump
Method: The radial arm maze experiments used acute administration of seletracetam (0-4 mg/kg), brivaracetam (0-4 mg/kg), or saline vehicle given by intraperitoneal injection (in a volume of 1 ml/kg) 30-40 min prior to test sessions. In the chronic treatment experiment, memory-impaired aged rats were implanted subcutaneously in the intrascapular region with osmotic mini-pumps (ALZET, Durect Corporation, Cupertino, Calif.) with brivaracetam (2 mg/kg/day) or saline vehicle starting two weeks prior to assessment in the water maze.
Rats were trained and tested in a novel water maze environment to assess the effect of drug treatment. The water maze used here was housed in a different building and was surrounded by curtains with a novel set of patterns relative to the maze used for initial assessment of cognitive status. The training protocol consisted of 6 trials per day for 2 days to locate a submerged escape platform. On each trial, a rat was released in the maze from one of four equally spaced starting positions around the perimeter of the pool. The starting position varied from trial to trial. […] The rat was then removed from the platform and placed in a holding cage for another 40 s before the next trial. Approximately 24 hr after the last training trial, a probe test in the absence of the escape platform was given to assess spatial memory.

MAM-treated rats [4] = details: rat, in vivo; cited from earlier work
[5] = system: Memory-impaired aged rats; details: cited from earlier work
aged-impaired (AI) rats = assay: Radial Arm Maze task with one-hour delay, levetiracetam and/or valproate; format: in vivo, rat; details: valproate on its own

C#Cc1ccc2c(c1)C(c1ccccc1F)=N[C@H](C)c1c(C(=O)OCC)ncn1-2 [SH-053-2′F—R—CH3]
number of spontaneously active DA neurons in the ventral tegmental area (VTA) (MAM-treated rats [1]; MAM rats, systemic or infused into ventral HPC, to levels of saline-treated rats): reduces | increased locomotor response to amphetamine (MAM-treated rats [1]; MAM-treated rats): reduced | cortical-evoked responses of HPC neurons (MAM-treated rats [1]; saline-treated and MAM-treated animals): diminished

CCC[C@@H]1CC(=O)N([C@@H](CC)C(N)=O)C1 [brivaracetam]
number of errors in the retention phase after 2-hr delay [2]: significant effect as a function of dose | spatial bias for the target quadrant compared to the other quadrants ([3]; 14 days, n=3/group, t(2)=10.000, p=0.010): significant spatial bias | time in the target annulus compared to vehicle-treated rats ([3]; t(4)=3.109, p=0.036): significantly more time | time in the target quadrant compared to vehicle-treated rats ([3]; t(4)=3.881, p=0.018): significantly more time

CC[C@@H](C(N)=O)N1C[C@H](C=C(F)F)CC1=O [seletracetam]
number of errors in the retention phase after 2-hr delay [2]: significant effect as a function of dose

NC1=N[C@H](O)[C@H]2[C@H]3O[C@]4(O)O[C@@H]([C@@H](O)[C@@]2(N1)[C@@H]4O)[C@]3(O)CO [tetrodotoxin]
augmented amphetamine-induced locomotor behavior (MAM-treated rats [4]): normalized | elevated DA neuron population activity (MAM-treated rats [4]): completely reversed

CCCC(CCC)C(=O)O [valproate, 2-propylpentanoate]
treatment of cognitive impairment ([5]; 50 mg/kg/day, chronic subcutaneous administration): not effective | performance in a memory test ([5]; 100 mg/kg/day, chronic subcutaneous administration): significantly improved | blood total valproate level ([5]; rat, in vivo): 10 μg/ml plasma | effective in reducing the number of errors (aged-impaired (AI) rats; 25 mg/kg or 50 mg/kg subcutaneous): not | effective in reducing the number of errors (aged-impaired (AI) rats; 100 mg/kg subcutaneous): effective
